Values after ≈ are worked out from the molar mass of the structure shown. Read-outs that look alike come from different tables or passages of the source.
Assays:
EfaUPPS (L91A) [1] = molecular target: T1, EfaUPPS (L91A) (Enterococcus faecalis, UniProt Q831K9, L97A); experiment: Microscale thermophoresis binding assay, EfaUPPS L91A; settings: MST, no binding
T1 construct: His tag; made in house; host or cells: E. coli BL21(DE3)
Description: (§1) To characterize the binding affinity between EfaUPPS and GA or NGA, the MST binding assay was performed as previously described ([Lin et al., 2020]). In brief, His-tagged EfaUPPS and site-directed mutated EfaUPPS were labeled with the NT- 647-NHS dye using the Monolith NTTM Protein Labeling Kit RED-NHS (NanoTemper Technologies). Two-fold serially diluted GA or NGA was mixed with 10 nM of labeled EfaUPPS or its derivatives in 10 μl of binding buffer (137 mM NaCl, 2.7 mM KCl, 10 mM Na2HPO4, 1.8 mM KH2PO4, and 0.05% Tween-20, pH 7.8), incubated for 15 min, at room temperature. And then, loaded the mixtures into NT.115 premium coated capillaries (NanoTemper Technologies). MST trace signals were collected from the IR laser on to off for about 20 s, under the 5% LED power and high MST power mode. The change of molecular thermophoresis was monitored by standardized fluorescence value Fnorm, and the binding curve was plotted according to the values of Fnorm. The formed complex affinity was analyzed by MO Affinity Analysis software version 2.3. Apparent dissociation constants (Kd) were calculated using nonlinear fitting assuming one specific binding site with the GraphPad Prism 7 software with the following formula: Y = B^∗Max X/KD + X.
(§2) (^∗ where BMax is the maximum theoretical specific binding; here BMax = 1).

WT EfaUPPS = molecular target: T2, WT EfaUPPS (Enterococcus faecalis, UniProt Q831K9); experiment: Microscale thermophoresis binding assay, wild-type EfaUPPS
T2 construct: His tag; made in house; host or cells: E. coli BL21(DE3)
T2 sequence (Q831K9 whole entry): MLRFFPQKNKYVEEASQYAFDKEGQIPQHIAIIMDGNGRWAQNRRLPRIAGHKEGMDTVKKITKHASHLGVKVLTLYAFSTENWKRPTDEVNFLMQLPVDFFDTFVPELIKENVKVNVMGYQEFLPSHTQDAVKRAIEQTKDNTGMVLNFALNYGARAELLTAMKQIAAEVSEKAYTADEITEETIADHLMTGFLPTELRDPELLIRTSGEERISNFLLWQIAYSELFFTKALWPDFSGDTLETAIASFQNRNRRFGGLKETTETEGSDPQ
Description: as §1, §2

[2] = molecular target: T3, Enterococcus faecalis UPPS (EfaUPPS), wild-type (Enterococcus faecalis, UniProt Q831K9); experiment: UPPS inhibition assay (enzyme-coupled fluorescence), wild-type EfaUPPS; format: biochemical
T3 construct: His tag; made in house; host or cells: E. coli BL21(DE3)
T3 sequence (Q831K9 whole entry): as above
Description: Enterococcus faecalis undecaprenyl pyrophosphate synthase (EfaUPPS) recombination studies were performed as previously described ([Li et al., 2020]). Briefly, the full-length gene sequence of EfaUPPS was cloned into the NdeI and HindIII sites of pET28a vector under control of T7 promoter. The sequenced plasmid was then transformed into E. coli strain BL21(DE3) (Invitrogen) and the transformants were grown on LB broth media supplemented with 50 μg/mL kanamycin. A single colony of the transformant was then cultured in 100 mL of LB broth containing 50 μg/mL kanamycin overnight. The overnight cultures were inoculated into 1 L of LB broth containing 50 μg/mL kanamycin and continue to culture until reaching an OD600 of 0.8. Upon reaching the optimal growth states, the cultures were induced by addition of 1 mM isopropyl-β-D-thiogalactoside (IPTG), and then cultured at 16°C for 16 h. […]
The UPPS inhibition assay was carried out by measuring the fluorescence of the reaction mixture in a black 96-well microtiter plate (Corning, United States). […] The UPPS inhibitory activity was performed by calculating the fluorescence percentage through determining the fluorescence absorbance of reaction mixture at 316 and 456 nm. […]

E. faecalis ATCC29212 = experiment: Bacterial activity (bactericidal) test; format: cell-based, Enterococcus faecalis; settings: 2 μg/mL
Description: The E. faecalis ATCC29212 were pre-cultured in LB broth at 200 rpm, 37°C overnight, and then the cultures were diluted to 7 × 10^5 CFU/mL by LB broth. A 96-well microtiter plate was inoculated with 200 μl the diluted cultures per well containing 0.1 mg/mL Resazurin with or without 2 μg/mL GA or NGA, followed by incubation at 37°C for 24 h, and then imaged. Three biological replicates were performed for each sample. To visualized the potential bactericidal properties for GA and NGA, the 24 h of GA/NGA-pretreated E. faecalis were coated on the plate to continue cultured overnight. The bactericidal properties of the compounds were determined by counting the bacterial CFUs.

MRSA = experiment: MIC, microtiter broth dilution; format: cell-based, Staphylococcus aureus; settings: Staphylococcus aureus, MRSA, 18 h
Description: (§3) Antibacterial activities were performed by examining the minimal inhibitory concentrations (MICs), which was determined by a microtiter broth dilution method as previously described ([Cotsonas King and Wu, 2009]), with minor modifications. Briefly, 96-well plates (Corning) were inoculated with 100 μl of LB broth per well containing 7 × 10^5 CFU/mL bacteria, followed by adding 100 μl of LB broth containing two-fold serial dilutions of the test compounds. […] After 18 h of incubation, the MIC was determined to be the lowest concentration without visible bacterial growth. The results were the averages of at least three biological replicates.

[3] = system: Staphylococcus aureus ATCC29213; experiment: MIC, microtiter broth dilution; format: cell-based; settings: Staphylococcus aureus
Description: as §3

[4] = system: Enterococcus faecalis ATCC29212; experiment: MIC, microtiter broth dilution; format: cell-based; settings: Enterococcus faecalis
Description: as §3

[5] = system: Escherichia coli ATCC25922; experiment: MIC, microtiter broth dilution; format: cell-based; settings: Escherichia coli
Description: as §3

[6] = system: Listeria monocytogenes ATCC19117; experiment: MIC, microtiter broth dilution; format: cell-based; settings: Listeria monocytogenes
Description: as §3

EfaUPPS (L91A) [7] = molecular target: T1, EfaUPPS (L91A); experiment: UPPS inhibition assay, EfaUPPS L91A mutant; format: biochemical; settings: for effect of mutation on inhibitory effect of compound on EfaUPPS enzyme activity: L91A mutant compared with wild-type; for IC50 fold higher than that of the wild-type: L91A mutant vs wild-type (~3 μM)
Description: The EfaUPPS site-directed mutagenesis was generated using QuikChange site-directed mutagenesis kit (Agilent) according to the manufacturer’s instructions. The purification of site-directed mutation was using a similar strategy as described above.
The UPPS inhibition assay was carried out by measuring the fluorescence of the reaction mixture in a black 96-well microtiter plate (Corning, United States). […] After the indicated incubation period, the reaction was terminated by the addition of 10 μl of 0.5 M EDTA solution. Transferred 50 μl of the reaction mixture into a new 96-well microtiter plate, and quenched with an equal volume of Master Reaction Mix (Pyrophosphate Assay Kit, Sigma-Aldrich, USA) for 30 min. The UPPS inhibitory activity was performed by calculating the fluorescence percentage through determining the fluorescence absorbance of reaction mixture at 316 and 456 nm. Data of UPPS inhibitory activities were plotted versus compound concentrations on a semi-log scale using GraphPad Prism7. All the results were the means of at least three biological replicates.

T1 sequence (Q831K9 whole entry L97A): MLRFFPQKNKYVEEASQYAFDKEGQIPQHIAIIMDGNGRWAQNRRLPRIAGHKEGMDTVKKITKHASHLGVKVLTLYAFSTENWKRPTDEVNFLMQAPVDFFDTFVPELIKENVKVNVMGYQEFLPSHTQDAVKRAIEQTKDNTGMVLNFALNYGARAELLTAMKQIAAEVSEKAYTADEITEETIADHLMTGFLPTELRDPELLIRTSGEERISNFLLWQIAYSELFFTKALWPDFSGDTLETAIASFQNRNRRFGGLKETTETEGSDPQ

SMILES	Kd (EfaUPPS (L91A) [1]) [µM]	Kd (WT EfaUPPS; MST, WT EfaUPPS, read-out: Kd) [µM]	IC50 ([2]; WT EfaUPPS, 35 μM IPP, 5 μM FPP, read-out: IC50) [µM]	bactericidal properties (CFUs after 24 h pretreatment) (E. faecalis ATCC29212)	MIC (MRSA; LB broth, read-out: MIC) [µg/mL]	MIC ([3]; ATCC29213, LB broth, 18 h, read-out: MIC) [µg/mL]	MIC ([4]; ATCC29212, LB broth, 18 h, read-out: MIC) [µg/mL]	MIC ([5]; ATCC25922, LB broth, 18 h, read-out: MIC) [µg/mL]	MIC ([6]; ATCC19117, LB broth, 18 h, read-out: MIC) [µg/mL]	IC50 (EfaUPPS (L91A) [7]) [µM]	effect of mutation on inhibitory effect of compound on EfaUPPS enzyme activity (EfaUPPS (L91A) [7])	IC50 fold higher than that of the wild-type (EfaUPPS (L91A) [7])	Kd (WT EfaUPPS) [µM]	Kd fold lower than that for GA (WT EfaUPPS; WT EfaUPPS, NGA vs GA)	IC50 [2] [µM]	MIC (MRSA) [µg/mL]	MIC ([3]; ATCC29213, 18 h) [µg/mL]	MIC ([4]; ATCC29212, 18 h) [µg/mL]	MIC ([5]; ATCC25922, 18 h) [µg/mL]	MIC ([6]; ATCC19117, 18 h) [µg/mL]
CC(C)=CCC[C@]1(C)C=Cc2c(O)c3c(c(CC=C(C)C)c2O1)O[C@]12C(=C[C@@H]4C[C@H]1C(C)(C)O[C@@]2(C/C=C(/C)C(=O)O)C4=O)C3=O [GA, gambogic acid]	> 50000	29 ± 8.03	3.08	potential bactericidal effects	4 (≈ 6.36 µM)	2 (≈ 3.18 µM)	2 (≈ 3.18 µM)	> 64	4 (≈ 6.36 µM)	~30	significantly decreased	about 10 fold								
CC(C)=CCC[C@]1(C)CC(O)c2c(O)c3c(c(CC=C(C)C)c2O1)O[C@]12C(=C[C@@H]4C[C@H]1C(C)(C)O[C@@]2(C/C=C(/C)C(=O)O)C4=O)C3=O (stereo partly shown) [NGA, neogambogic acid]	> 50000			potential bactericidal effects						~30	significantly reduced	about 10 fold	5.61 ± 2.16	about 5 fold	3.07	4 (≈ 6.18 µM)	4 (≈ 6.18 µM)	2 (≈ 3.09 µM)	> 64	4 (≈ 6.18 µM)

— PMC9791066, “Investigations into the antibacterial effects and potential mechanism of gambogic acid and neogambogic acid” (Frontiers in Microbiology, 2022)
